Where two headings read alike, the source gives them in different places.
Key:
p38a/MK2 = p38a/MK2 (Homo sapiens (Human), UniProt P49137+Q16539); test: p38a/MK2 biochemical assay: activation of MK2 by p38, FITC-HSP27 peptide phosphorylation (IMAP FP); settings: 10-point 1:3 dilution, 60 pM active p38a, 1 nM inactive MK2, 10 μM ATP, 2 h incubation
p38a/PRAK = p38a/PRAK (Homo sapiens (Human), UniProt Q16539); test: p38a/PRAK biochemical assay: activation of PRAK by p38, FITC-HSP27 peptide phosphorylation (IMAP FP); settings: 10-point 1:3 dilution, top dose 300 μM; 60 pM active p38a, 1 nM inactive PRAK, 10 μM ATP, 2 h incubation; read-out: p38a/PRAK Enzyme pIC50 (converted)
How it was run: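 GST-tagged MK2 (F46–H400) and PRAK (M1–Q471), expressed in E. coli, activated by p38 and phosphorylate FITC-HSP27 peptide over 2 h with compound; readout by IMAP fluorescence polarisation (ex 485/em 528 nm). Ten-point 1:3 dilutions, top dose 1 μM for MK2 and 300 μM for PRAK. IC50 after vehicle normalisation; selectivity = IC50(PRAK)/IC50(MK2).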

[1] = top dose 1 μM, read-out: p38a/MK2 (1 μM) Enzyme pIC50 (converted)
[2] = top dose 10 μM, read-out: p38a/MK2 (10 μM) Enzyme pIC50 (converted)

Chain of p38a/PRAK (Q16539 whole entry): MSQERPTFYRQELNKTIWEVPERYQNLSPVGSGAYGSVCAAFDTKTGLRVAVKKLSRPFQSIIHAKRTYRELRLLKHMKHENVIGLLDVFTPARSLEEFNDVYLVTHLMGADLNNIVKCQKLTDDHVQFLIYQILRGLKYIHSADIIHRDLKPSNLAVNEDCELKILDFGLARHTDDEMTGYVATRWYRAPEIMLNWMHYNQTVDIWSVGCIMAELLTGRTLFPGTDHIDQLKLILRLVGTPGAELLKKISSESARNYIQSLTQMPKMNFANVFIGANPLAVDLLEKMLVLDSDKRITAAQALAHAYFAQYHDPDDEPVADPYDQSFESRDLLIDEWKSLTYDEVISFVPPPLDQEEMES
Chain of p38a/MK2 (P49137 46-400): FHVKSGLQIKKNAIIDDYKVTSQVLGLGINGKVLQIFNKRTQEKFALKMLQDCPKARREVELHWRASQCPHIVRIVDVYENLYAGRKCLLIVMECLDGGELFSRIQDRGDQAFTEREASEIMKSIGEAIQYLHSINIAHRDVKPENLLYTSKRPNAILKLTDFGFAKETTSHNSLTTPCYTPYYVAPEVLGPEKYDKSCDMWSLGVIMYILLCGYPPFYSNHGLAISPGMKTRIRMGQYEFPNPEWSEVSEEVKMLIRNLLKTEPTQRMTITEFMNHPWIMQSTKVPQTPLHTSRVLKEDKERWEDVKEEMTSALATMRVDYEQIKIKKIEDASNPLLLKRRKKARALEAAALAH
Chain of p38a/MK2 (Q16539 whole entry): as the sequence (Q16539 whole entry) above

Compound	IC50 (p38a/MK2; [1]) [nM]	IC50 (p38a/PRAK) [nM]	IC50 (p38a/MK2; [2]) [nM]	p38a/MK2 (10 μM) Enzyme pIC50 (p38a/MK2; top dose 10 μM)
[2H]C([2H])(Oc1cc(C)n(-c2c(C)cnc(-c3ccnc(C(C)(C)O)c3F)c2F)c(=O)c1Cl)c1ncc(F)cc1F (single isomer, unassigned) [Example 65A, rel-3-chloro-1-[3,3′-difluoro-2′-(2-hydroxypropan-2-yl)-5-methyl-[2,4′-bipyridin]-4-yl]-4-[(3,5-difluoropyridin-2-yl)(2H2)methoxy]-6-methylpyridin-2-one]	3.98	200		
Cc1cnc(-c2cccc([C@@H](O)CO)n2)cc1-n1c(C)cc(OCc2ncc(F)cc2F)c(Cl)c1=O (single isomer, unassigned) [Example 34A, rel-3-chloro-4-[(3,5-difluoropyridin-2-yl)methoxy]-2′-[6-(1,2-dihydroxyethyl)pyridin-2-yl]-5′,6-dimethyl-[1,4′-bipyridin]-2-one]	20	10000		
Cc1cnc(-c2ccnc(C(O)C3CC3)n2)cc1-n1c(C)cc(OCc2ncc(F)cc2F)c(Cl)c1=O (single isomer, unassigned) [Example 35B, rel-3-chloro-2′-{2-[cyclopropyl(hydroxy)methyl]pyrimidin-4-yl}-4-[(3,5-difluoropyridin-2-yl)methoxy]-5′,6-dimethyl-[1,4′-bipyridin]-2-one]	15.8	5010		
Cc1cnc(-c2ccc3c(n2)[C@H](O)CC3)cc1-n1c(C)cc(OCc2ncc(F)cc2F)c(Cl)c1=O (single isomer, unassigned) [Example 18D]		3160	79.4	
Cc1cnc(-c2nc(C(C)(C)O)n(C)n2)cc1-n1c(C)cc(OCc2ncc(F)cc2F)c(Cl)c1=O (single isomer, unassigned) [Example 42B, rel-3-chloro-4-[(3,5-difluoropyridin-2-yl)methoxy]-2′-[5-(2-hydroxypropan-2-yl)-1-methyl-1,2,4-triazol-3-yl]-5′,6-dimethyl-[1,4′-bipyridin]-2-one]	> 1000	> 316000		
Cc1cnc(-c2ccnc(C(C)(C)O)c2)cc1-n1c(C)cc(OCc2ncc(F)cc2F)c(Cl)c1=O (single isomer, unassigned) [Example 38A, rel-3-chloro-4-[(3,5-difluoropyridin-2-yl)methoxy]-2′-[2-(2-hydroxypropan-2-yl)pyridin-4-yl]-5′,6-dimethyl-[1,4′-bipyridin]-2-one]	100	31600		
Cc1cnc(-c2cccc([C@@H](O)CO)n2)cc1-n1c(C)cc(OCc2ncc(F)cc2F)c(Cl)c1=O (single isomer, unassigned) [Example 34D, rel-3-chloro-4-[(3,5-difluoropyridin-2-yl)methoxy]-2′-[6-(1,2-dihydroxyethyl)pyridin-2-yl]-5′,6-dimethyl-[1,4′-bipyridin]-2-one]		> 316000	3160	
Cc1cnc(-c2ccnc(C3(CO)CC3)n2)cc1-n1c(C)cc(OCc2ncc(F)cc2F)c(Cl)c1=O (single isomer, unassigned) [Example 21B, rel-3-chloro-4-((3,5-difluoropyridin-2-yl)methoxy)-2′-(2-(1-(hydroxymethyl)cyclopropyl)pyrimidin-4-yl)-5′,6-dimethyl-2H-[1,4′-bipyridin]-2-one]	3.16	2000		
Cc1cnc(-c2ccnc(C(C)(C)CO)n2)cc1-n1c(C)cc(OCc2ncc(F)cc2F)c(Cl)c1=O (atropisomer, axis not shown) [Example 4, 3-chloro-4-[(3,5-difluoropyridin-2-yl)methoxy]-2′-[2-(1-hydroxy-2-methylpropan-2-yl)pyrimidin-4-yl]-5′,6-dimethyl-[1,4′-bipyridin]-2-one]		7940		7.8
Cc1cnc(-c2ccc3c(n2)C(C)(O)CC3)cc1-n1c(C)cc(OCc2ncc(F)cc2F)c(Cl)c1=O (single isomer, unassigned) [Example 32C]		6310	63.1	
